Source: patent US8188133B2, “Imidazole derivatives, preparation and user thereof as medicine” (Ipsen Pharma S.A.S., priority 2006, dated 2012)

SMILES | melting point [°C]
Cl.NS(=O)(=O)Nc1ccc(Oc2ccc(-c3c[nH]c(COc4ccccc4)n3)cc2)cc1F | 185 to 187
CCCCNC(=O)Nc1ccc(Oc2ccc(-c3c[nH]c(COc4ccccc4)n3)cc2)cc1.O=C(O)C(F)(F)F | 85 to 87
Cc1ccc(NC(=O)Nc2ccc(Oc3ccc(-c4c[nH]c(COc5ccccc5)n4)cc3)cc2)cc1 [Example 1, N-(4-methylphenyl)-N′-(4-{4-[2-(phenoxymethyl)-1H-imidazol-4-yl]phenoxy}phenyl)urea] | 192 to 194
NC(=O)Nc1ccc(Oc2ccc(-c3c[nH]c(COc4ccccc4)n3)cc2)cc1 [Example 3, N-(4-{4-[2-(phenoxymethyl)-1H-imidazol-4-yl]phenoxy}phenyl)urea] | 200 to 202
CCNC(=S)Nc1ccc(Oc2ccc(-c3c[nH]c(COc4ccccc4)n3)cc2)cc1 [Example 4, N-ethyl-N′-(4-{4-[2-(phenoxymethyl)-1H-imidazol-4-yl]phenoxy}phenyl)thiourea] | 178 to 180
CCNC(=S)Nc1ccc(Oc2ccc(-c3c[nH]c(COc4ccccc4)n3)cc2)cc1F [Example 5, N-ethyl-N′-(2-fluoro-4-{4-[2-(phenoxymethyl)-1H-imidazol-4-yl]phenoxy}phenyl)thiourea] | 105 to 107
NC(=S)Nc1ccc(Oc2ccc(-c3c[nH]c(COc4ccccc4)n3)cc2)cc1F [Example 6, N-(2-fluoro-4-{4-[2-(phenoxymethyl)-1H-imidazol-4-yl]phenoxy}phenyl)thiourea] | 171 to 173
CC(C)NC(=O)Nc1ccc(Oc2ccc(-c3c[nH]c(COc4ccccc4)n3)cc2)cc1 [Example 7, N-isopropyl-N′-(4-{4-[2-(phenoxymethyl)-1H-imidazol-4-yl]phenoxy}phenyl)urea] | 184 to 186
O=C(Nc1ccccc1)Nc1ccc(Oc2ccc(-c3c[nH]c(COc4ccccc4)n3)cc2)cc1 [Example 8, N-(4-{4-[2-(phenoxymethyl)-1H-imidazol-4-yl]phenoxy}phenyl)-N′-phenylurea] | 146 to 148
N#CN=C(N)Nc1ccc(Oc2ccc(-c3c[nH]c(COc4ccccc4)n3)cc2)cc1F [Example 12, N″-cyano-N-(2-fluoro-4-{4-[2-(phenoxymethyl)-1H-imidazol-4-yl]phenoxy}phenyl)guanidine] | 139 to 141
NC(=N[N+](=O)[O-])Nc1ccc(Oc2ccc(-c3c[nH]c(COc4ccccc4)n3)cc2)cc1F [Example 13, N-(2-fluoro-4-{4-[2-(phenoxymethyl)-1H-imidazol-4-yl]phenoxy}phenyl)-N″-nitroguanidine] | 193 to 195
